# Experiments:
# [1] = tested on: Leukotrine B4, LTB4; assay: Leukotrine B4, LTB4; [3H]LTB4; type: binding; details: 10^−5 M
# [2] = target: GABA A, BDZ, alpha 1, central (Bos taurus, UniProt P08219+P22300); assay: biochemical; details: read-out: Pass 1 (10^−5 M) % Inhibition
# [3] = target: T1, Opiate, Delta 2 (Homo sapiens, UniProt P41143); assay: Opiate, Delta 2 (Human Recombinant); [3H]-Naltrindole; type: binding; details: read-out: Pass 1 (10^−5 M) % Inhibition
# T1 construct: expressed in transfected cells
# [4] = tested on: Angiotensin II, AT2; type: binding; details: 10^−5 M
# [5] = tested on: Sodium, Site 1; type: binding
# [6] = target: T2, Histamine, H2 (Cavia porcellus, UniProt P47747); assay: biochemical; type: binding; details: read-out: Pass 1 (10^−5 M) % Inhibition
# T2 construct: no other source notation after assay name denotes animal cell or animal tissue source; from tissue; host or cells: animal cell or animal tissue, not specified
# [7] = tested on: Clozapine; type: binding
# [8] = tested on: Protein Tyrosine Phosphatase, PTP-B; assay: Protein Tyrosine Phosphatase, PTP-B (Human); substrate pNPP; type: biochemical; details: 10^−5 M; footnote: not confirmed in QA/QC follow-up
# [9] = tested on: Protein Phosphatase, PP2B (Calcineurin); assay: Protein Phosphatase, PP2B (Calcineurin); substrate pNPP; type: biochemical; details: 10^−5 M
# [10] = tested on: Galanin; assay: Galanin; [I125]Galanin; type: binding
# [11] = target: Muscarinic, M3 (Homo sapiens, UniProt P20309); assay: biochemical; details: read-out: Pass 1 (10^−5 M) % Inhibition
# [12] = tested on: Glutamate, MK-801 Site; assay: Glutamate, MK-801 Site; [3H]MK-801; type: binding; details: 10^−5 M
# [13] = reported in vivo pharmacology, cited from earlier work
# [14] = tested on: Serotonin, 5HT1A; type: binding
# [15] = tested on: Oxytocin; type: binding; details: 10^−5 M
# [16] = tested on: Glutamic Acid Decarboxylase; assay: Glutamic Acid Decarboxylase; substrate [14C]Glutamic acid; type: biochemical; details: 10^−5 M
# [17] = tested on: Protein Kinase C, PDBu; type: binding
# [18] = target: Progesterone (Bos taurus, UniProt F1N712); assay: Progesterone; [3H]Promegestone; type: binding; details: read-out: Pass 1 (10^−5 M) % Inhibition
# [19] = target: Serotonin, 5HT1A (Homo sapiens, UniProt P08908); assay: biochemical; type: binding; details: read-out: Pass 1 (10^−5 M) % Inhibition
# [20] = target: T3, Thromboxane A2 (Homo sapiens, UniProt P21731); assay: Thromboxane A2 (Human); [3H]SQ 29,548; type: binding; details: read-out: Pass 1 (10^−5 M) % Inhibition
# T3 construct: from human cell lines; endogenous in cells
# [21] = target: T4, Dopamine, D5 (Homo sapiens, UniProt P21918); assay: biochemical; type: binding; details: read-out: Pass 1 (10^−5 M) % Inhibition
# T4 construct: expressed in transfected cells
# [22] = target: Muscarinic, M2 (Homo sapiens, UniProt P08172); assay: biochemical; details: read-out: Pass 1 (10^−5 M) % Inhibition
# [23] = target: Adenosine Transport (es) (Homo sapiens, UniProt Q99808); assay: biochemical; details: read-out: Pass 1 (10^−5 M) % Inhibition
# [24] = tested on: Atrial Natriuretic Peptide, ANP A; assay: Atrial Natriuretic Peptide, ANP A; [125I]ANP (Rat); type: binding
# [25] = tested on: Glutamate, Chloride Dependent Site; assay: Glutamate, Chloride Dependent Site; [3H]Glutamic Acid; type: binding; details: 10^−5 M
# [26] = tested on: Epidermal Growth Factor, EGF; assay: Epidermal Growth Factor, EGF; [125I]EGF; type: binding; details: 10^−5 M
# [27] = target: Calcium Channel, Type L (Benzothiazepine Site) (Rattus norvegicus, UniProt P22002); assay: Calcium Channel, Type L (Benzothiazepine Site); [3H]Diltiazem, cis(+); type: binding; details: read-out: Pass 1 (10^−5 M) % Inhibition
# [28] = tested on: Sodium, Site 2; type: binding
# [29] = tested on: GABA Transport; type: biochemical; details: 10^−5 M
# [30] = target: T5, Histamine, H1 (Bos taurus, UniProt P30546); assay: Histamine, H1; [3H]Pyrilamine; type: binding; details: read-out: Pass 1 (10^−5 M) % Inhibition
# T5 construct: no other source notation after assay name denotes animal cell or animal tissue source; from tissue; host or cells: animal cell or animal tissue, not specified
# [31] = target: Complement C5a (Homo sapiens, UniProt P21730); assay: Complement C5a (Human); [125I]BH-rC5a; type: binding; details: read-out: Pass 1 (10^−5 M) % Inhibition
# [32] = target: T6, Elastase (Homo sapiens, UniProt P08246); assay: Elastase (Human); substrate MeO-Suc-Ala-Ala-Pro-Val-pNA; type: biochemical; details: read-out: Pass 1 (10^−5 M) % Inhibition
# T6 construct: from human cell lines; endogenous in cells
# [33] = tested on: Glutamate, Kainate Site; assay: Glutamate, Kainate Site; [3H]Kainic acid; type: binding; details: 10^−5 M
# [34] = tested on: Somatostatin, Non-selective; assay: Somatostatin, Non-selective; [125]-Somatostatin-14 (Tyr11); type: binding; details: 10^−5 M
# [35] = tested on: Cholecystokinin, CCK2 (CCKB); assay: Cholecystokinin, CCK2 (CCKB); [125I]CCK-8; type: binding; details: 10^−5 M
# [36] = target: T7, Adenosine, A2A (Homo sapiens, UniProt P29274); assay: biochemical; type: binding; details: read-out: Pass 1 (10^−5 M) % Inhibition
# T7 construct: expressed in transfected cells
# [37] = tested on: Vasoactive Intestine Peptide, Non-selective; type: binding; details: 10^−5 M
# [38] = tested on: Corticotropin Releasing Factor, CRF; type: binding
# [39] = target: T8, Monoamine Oxidase A, Peripheral (Rattus norvegicus, UniProt P21396); assay: biochemical; details: read-out: Pass 1 (10^−5 M) % Inhibition
# T8 construct: no other source notation after assay name denotes animal cell or animal tissue source; from tissue
# [40] = target: T9, Platelet Activating Factor, PAF (Oryctolagus cuniculus, UniProt G1TEI7); assay: Platelet Activating Factor, PAF; [3H]Hexadecyl, PAF; type: binding; details: read-out: Pass 1 (10^−5 M) % Inhibition
# T9 construct: no other source notation after assay name denotes animal cell or animal tissue source; from tissue
# [41] = target: T10, Cannabinoid, CB2 (Homo sapiens, UniProt P34972); assay: Cannabinoid, CB2 (Human recombinant); [3H]-CP55940; type: binding; details: read-out: Pass 1 (10^−5 M) % Inhibition
# T10 construct: expressed in transfected cells
# [42] = tested on: GABA-B; type: binding
# Muscarinic, M2, sequence (P08172 whole entry): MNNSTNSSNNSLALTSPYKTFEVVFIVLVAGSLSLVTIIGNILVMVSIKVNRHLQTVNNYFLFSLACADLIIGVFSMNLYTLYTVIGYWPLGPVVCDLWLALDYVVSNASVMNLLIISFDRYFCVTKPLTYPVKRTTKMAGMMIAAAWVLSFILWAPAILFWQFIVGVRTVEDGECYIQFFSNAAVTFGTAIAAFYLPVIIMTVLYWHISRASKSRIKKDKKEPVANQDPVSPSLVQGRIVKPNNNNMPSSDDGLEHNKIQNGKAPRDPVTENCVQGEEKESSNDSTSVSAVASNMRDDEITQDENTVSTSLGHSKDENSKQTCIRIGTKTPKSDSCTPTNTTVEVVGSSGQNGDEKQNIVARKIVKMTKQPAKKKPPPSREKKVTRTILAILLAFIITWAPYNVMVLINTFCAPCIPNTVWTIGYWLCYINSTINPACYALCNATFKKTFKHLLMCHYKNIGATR
# T10 sequence (P34972 whole entry): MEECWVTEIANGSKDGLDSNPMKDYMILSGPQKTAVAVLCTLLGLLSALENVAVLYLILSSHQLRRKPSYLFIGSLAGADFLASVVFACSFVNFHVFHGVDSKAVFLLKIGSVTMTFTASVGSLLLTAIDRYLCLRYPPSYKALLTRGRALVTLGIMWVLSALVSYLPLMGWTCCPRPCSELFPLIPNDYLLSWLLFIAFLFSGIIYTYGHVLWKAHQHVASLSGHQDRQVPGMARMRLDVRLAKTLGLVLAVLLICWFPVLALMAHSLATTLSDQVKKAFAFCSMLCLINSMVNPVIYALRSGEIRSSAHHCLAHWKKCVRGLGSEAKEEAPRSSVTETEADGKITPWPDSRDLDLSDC
# Adenosine Transport (es), sequence (Q99808 whole entry): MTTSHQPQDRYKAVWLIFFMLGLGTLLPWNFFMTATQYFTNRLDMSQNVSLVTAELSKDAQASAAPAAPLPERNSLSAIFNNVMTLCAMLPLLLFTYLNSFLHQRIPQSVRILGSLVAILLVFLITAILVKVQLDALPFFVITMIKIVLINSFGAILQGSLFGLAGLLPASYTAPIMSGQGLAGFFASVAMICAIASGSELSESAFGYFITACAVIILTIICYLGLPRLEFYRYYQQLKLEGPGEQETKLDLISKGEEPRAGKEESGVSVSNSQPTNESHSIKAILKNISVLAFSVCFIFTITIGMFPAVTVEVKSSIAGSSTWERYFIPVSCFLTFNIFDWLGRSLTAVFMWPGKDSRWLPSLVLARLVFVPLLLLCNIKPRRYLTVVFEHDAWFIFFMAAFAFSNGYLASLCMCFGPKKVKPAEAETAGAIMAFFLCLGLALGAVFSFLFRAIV
# T8 sequence (P21396 whole entry, looked up): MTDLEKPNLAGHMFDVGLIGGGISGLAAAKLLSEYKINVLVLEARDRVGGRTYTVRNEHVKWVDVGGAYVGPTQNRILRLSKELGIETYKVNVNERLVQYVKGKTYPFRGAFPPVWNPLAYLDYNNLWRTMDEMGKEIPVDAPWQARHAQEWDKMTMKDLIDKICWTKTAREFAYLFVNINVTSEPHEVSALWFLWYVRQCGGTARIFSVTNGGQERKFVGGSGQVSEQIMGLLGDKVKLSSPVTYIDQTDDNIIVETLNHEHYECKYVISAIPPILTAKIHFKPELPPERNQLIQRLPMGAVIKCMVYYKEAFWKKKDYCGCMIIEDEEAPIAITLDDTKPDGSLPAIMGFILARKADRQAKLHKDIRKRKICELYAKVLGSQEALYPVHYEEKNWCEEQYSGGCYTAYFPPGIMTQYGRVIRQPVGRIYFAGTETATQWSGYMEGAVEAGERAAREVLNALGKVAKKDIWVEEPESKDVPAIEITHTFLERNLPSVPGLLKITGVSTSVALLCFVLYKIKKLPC
# T1 sequence (P41143 whole entry): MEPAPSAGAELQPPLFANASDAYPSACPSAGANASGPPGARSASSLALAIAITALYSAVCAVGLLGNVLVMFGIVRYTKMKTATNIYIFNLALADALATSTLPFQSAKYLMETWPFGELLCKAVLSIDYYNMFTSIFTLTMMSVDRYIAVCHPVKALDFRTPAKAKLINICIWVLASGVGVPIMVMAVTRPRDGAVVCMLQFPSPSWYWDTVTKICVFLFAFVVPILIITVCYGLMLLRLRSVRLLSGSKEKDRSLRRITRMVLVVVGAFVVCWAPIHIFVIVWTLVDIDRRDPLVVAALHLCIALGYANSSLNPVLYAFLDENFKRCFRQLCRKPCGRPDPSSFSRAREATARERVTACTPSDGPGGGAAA
# Serotonin, 5HT1A (Homo sapiens, UniProt P08908), sequence (P08908 whole entry): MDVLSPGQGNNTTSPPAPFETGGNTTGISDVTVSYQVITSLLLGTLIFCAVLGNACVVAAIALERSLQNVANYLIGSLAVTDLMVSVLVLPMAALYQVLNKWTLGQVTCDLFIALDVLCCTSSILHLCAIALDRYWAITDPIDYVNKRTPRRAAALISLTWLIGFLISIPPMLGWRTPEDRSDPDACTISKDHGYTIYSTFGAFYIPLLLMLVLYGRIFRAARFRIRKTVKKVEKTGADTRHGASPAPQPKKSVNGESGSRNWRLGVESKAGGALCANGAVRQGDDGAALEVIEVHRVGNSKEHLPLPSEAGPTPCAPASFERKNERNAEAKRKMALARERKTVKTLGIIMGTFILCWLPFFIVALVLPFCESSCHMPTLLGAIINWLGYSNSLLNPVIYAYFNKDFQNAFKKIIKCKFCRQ
# T3 sequence (P21731 whole entry): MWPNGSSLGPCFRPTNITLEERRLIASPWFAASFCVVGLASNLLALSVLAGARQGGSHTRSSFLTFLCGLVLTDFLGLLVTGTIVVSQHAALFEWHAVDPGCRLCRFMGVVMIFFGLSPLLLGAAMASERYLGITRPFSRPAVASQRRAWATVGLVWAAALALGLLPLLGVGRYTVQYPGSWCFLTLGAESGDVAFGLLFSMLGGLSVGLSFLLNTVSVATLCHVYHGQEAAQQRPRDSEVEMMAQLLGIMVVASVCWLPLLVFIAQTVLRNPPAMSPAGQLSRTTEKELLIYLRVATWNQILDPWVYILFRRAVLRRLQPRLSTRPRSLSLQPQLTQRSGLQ
# T7 sequence (P29274 whole entry): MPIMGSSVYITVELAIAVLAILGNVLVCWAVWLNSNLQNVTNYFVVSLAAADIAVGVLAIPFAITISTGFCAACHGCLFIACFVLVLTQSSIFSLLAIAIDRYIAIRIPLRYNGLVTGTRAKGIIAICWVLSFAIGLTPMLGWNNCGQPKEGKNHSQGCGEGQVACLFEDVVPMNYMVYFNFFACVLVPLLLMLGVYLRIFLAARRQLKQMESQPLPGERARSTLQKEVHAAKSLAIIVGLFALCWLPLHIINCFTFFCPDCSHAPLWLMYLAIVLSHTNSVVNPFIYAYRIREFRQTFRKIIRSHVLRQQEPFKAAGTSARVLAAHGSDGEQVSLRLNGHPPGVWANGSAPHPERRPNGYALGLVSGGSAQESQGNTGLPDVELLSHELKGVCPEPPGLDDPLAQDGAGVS
# T2 sequence (P47747 whole entry): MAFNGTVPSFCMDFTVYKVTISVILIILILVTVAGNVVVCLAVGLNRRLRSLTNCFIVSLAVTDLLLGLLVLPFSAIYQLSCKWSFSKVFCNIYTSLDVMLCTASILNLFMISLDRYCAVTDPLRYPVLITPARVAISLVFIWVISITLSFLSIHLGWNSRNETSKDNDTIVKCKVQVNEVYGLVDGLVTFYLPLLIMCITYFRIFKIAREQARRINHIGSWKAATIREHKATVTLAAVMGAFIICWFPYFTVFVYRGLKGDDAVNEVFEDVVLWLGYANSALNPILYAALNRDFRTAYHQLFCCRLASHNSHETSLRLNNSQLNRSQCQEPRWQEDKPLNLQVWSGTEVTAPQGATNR
# T9 sequence (G1TEI7 entry or part of it): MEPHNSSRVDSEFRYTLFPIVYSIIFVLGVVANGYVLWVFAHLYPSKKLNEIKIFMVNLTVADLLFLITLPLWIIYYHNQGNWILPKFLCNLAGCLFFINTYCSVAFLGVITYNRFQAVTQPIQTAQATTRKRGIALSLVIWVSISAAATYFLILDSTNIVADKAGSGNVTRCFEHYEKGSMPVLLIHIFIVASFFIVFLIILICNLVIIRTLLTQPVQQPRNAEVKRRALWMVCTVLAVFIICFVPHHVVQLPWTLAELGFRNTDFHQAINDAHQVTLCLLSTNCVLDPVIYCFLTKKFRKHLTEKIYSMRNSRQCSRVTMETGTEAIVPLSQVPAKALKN
# T6 sequence (P08246 30-267): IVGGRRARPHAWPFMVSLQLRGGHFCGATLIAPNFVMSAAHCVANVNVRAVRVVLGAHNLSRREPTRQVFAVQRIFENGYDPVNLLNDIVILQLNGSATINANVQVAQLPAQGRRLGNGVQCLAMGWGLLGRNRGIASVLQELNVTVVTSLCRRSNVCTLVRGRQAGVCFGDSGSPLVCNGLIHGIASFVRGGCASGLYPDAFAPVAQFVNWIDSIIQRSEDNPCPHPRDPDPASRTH
# T5 sequence (P30546 whole entry): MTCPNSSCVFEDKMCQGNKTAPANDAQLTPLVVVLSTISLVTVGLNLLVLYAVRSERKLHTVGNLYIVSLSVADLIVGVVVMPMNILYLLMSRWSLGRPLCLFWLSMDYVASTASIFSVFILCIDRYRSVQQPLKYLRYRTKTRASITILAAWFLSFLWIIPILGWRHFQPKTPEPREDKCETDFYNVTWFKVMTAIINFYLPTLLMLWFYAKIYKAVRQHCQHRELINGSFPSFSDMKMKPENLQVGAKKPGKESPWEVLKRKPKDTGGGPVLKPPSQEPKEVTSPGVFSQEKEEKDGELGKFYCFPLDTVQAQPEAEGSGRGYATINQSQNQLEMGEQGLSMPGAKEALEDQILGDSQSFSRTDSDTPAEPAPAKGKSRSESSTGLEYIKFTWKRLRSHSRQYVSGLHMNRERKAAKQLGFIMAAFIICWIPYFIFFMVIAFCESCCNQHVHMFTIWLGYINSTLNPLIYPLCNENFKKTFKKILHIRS
compound,measurement,setting,value
COC(=O)[C@H]1[C@@H](OC(=O)c2ccccc2)C[C@@H]2CC[C@H]1N2C [cocaine],Pass 1 (10^−5 M) % Inhibition,[1],17.06%
same,inhibition at 10 µM,[2],9.58%
same,inhibition at 10 µM,[3],21.5%
same,Pass 1 (10^−5 M) % Inhibition,[4],5.85%
same,Pass 1 (10^−5 M) % Inhibition,[5],2.74%
same,inhibition at 10 µM,[6],28.8%
same,Pass 1 (10^−5 M) % Inhibition,[7],1.37%
same,Pass 1 (10^−5 M) % Inhibition,[8],65.03%
same,Pass 1 (10^−5 M) % Inhibition,[9],−10.37%
same,Pass 1 (10^−5 M) % Inhibition,[10],−14.73%
same,inhibition at 10 µM,[11],-8.07%
same,Pass 1 (10^−5 M) % Inhibition,[12],−2.86%
same,effects of high dosages,[13]; high dosages,"euphoria, involuntary motor activity, stereotypic behavior, paranoia, and irritability and increased risk of violence"
same,effect on heart rate and blood pressure,[13],dosage dependent increase in heart rate and blood pressure
same,Pass 1 (10^−5 M) % Inhibition,[14],0.52%
same,Pass 1 (10^−5 M) % Inhibition,[15],−4.65%
same,Pass 1 (10^−5 M) % Inhibition,[16],−1.39%
same,Pass 1 (10^−5 M) % Inhibition,[17],−4.44%
same,inhibition at 10 µM,[18],-10.9%
same,inhibition at 10 µM,[19],7.63%
same,inhibition at 10 µM,[20],22.1%
same,inhibition at 10 µM,[21],2.44%
same,inhibition at 10 µM,[22],3.57%
same,inhibition at 10 µM,[23],47.5%
same,Pass 1 (10^−5 M) % Inhibition,[24],11.36%
same,Pass 1 (10^−5 M) % Inhibition,[25],5.36%
same,Pass 1 (10^−5 M) % Inhibition,[26],10.05%
same,inhibition at 10 µM,[27],20.3%
same,Pass 1 (10^−5 M) % Inhibition,[28],36.80%
same,Pass 1 (10^−5 M) % Inhibition,[29],−19.43%
same,inhibition at 10 µM,[30],-19.7%
same,inhibition at 10 µM,[31],15.2%
same,inhibition at 10 µM,[32],-11.2%
same,Pass 1 (10^−5 M) % Inhibition,[33],1.95%
same,Pass 1 (10^−5 M) % Inhibition,[34],−3.54%
same,Pass 1 (10^−5 M) % Inhibition,[35],−14.06%
same,inhibition at 10 µM,[36],25.9%
same,Pass 1 (10^−5 M) % Inhibition,[37],30.71%
same,Pass 1 (10^−5 M) % Inhibition,[38],22.49%
same,inhibition at 10 µM,[39],32.8%
same,inhibition at 10 µM,[40],12.6%
same,inhibition at 10 µM,[41],0.78%
same,Pass 1 (10^−5 M) % Inhibition,[42],24.90%
